Among the test systems are UACC-62 melanoma; IGROV1 ovarian; HOP-92 NSCLC; LOX IMVI melanoma; RPMI-8226 leukemia; A498 renal; RXF 393 renal; OVCAR-8 ovarian; SNB-19 CNS.
What all share (experiment): NCI-60 cell line screen, 48 h

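Results reflect a 48-hour exposure of cells in 96-well plates to compound at five concentrations. GI50: concentration for 50% inhibition of growth. The concentration for full growth arrest is given as TGI.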

In the case of `Cc1cc(Cl)ccc1NC(=O)CCCC(=O)C(C(=O)c1ccccc1)c1ccccc1` (stereo not drawn), the TGI with UACC-62 melanoma, with IGROV1 ovarian, in the assay on HOP-92 NSCLC, with LOX IMVI melanoma, in the assay with RPMI-8226 leukemia and with A498 renal was over 100 µM each time.
Consider `O=C(O)Cc1cc(=O)[nH]c2c1C(=O)CCC2`, for which the TGI in the assay on IGROV1 ovarian, in the assay with HOP-92 NSCLC, in the assay with RXF 393 renal, with OVCAR-8 ovarian, with SNB-19 CNS and in the assay with RPMI-8226 leukemia was over 100 µM throughout.
For `CN(CCN(C)C(=O)CCn1ccc(=O)[nH]c1=O)C(=O)CCn1ccc(=O)[nH]c1=O`, the TGI in the assay on UACC-62 melanoma, in the assay on IGROV1 ovarian, in the assay on RXF 393 renal, in the assay on OVCAR-8 ovarian, with LOX IMVI melanoma and in the assay with SNB-19 CNS was over 100 µM throughout. Moreover, in the assay with RPMI-8226 leukemia, the TGI is over 100 µM.
As for `Cc1ccc(C)c2c1CCc1cc3ccccc3nc1-2`, the TGI in the assay with UACC-62 melanoma, in the assay with IGROV1 ovarian, with OVCAR-8 ovarian, with SNB-19 CNS, with RPMI-8226 leukemia and with A498 renal was over 100 µM each time.
In the case of `COc1cc(C2(C)SCCCS2)c(I)c(OC)c1OC`, the TGI in the assay with UACC-62 melanoma, with IGROV1 ovarian, with HOP-92 NSCLC, with OVCAR-8 ovarian, in the assay on LOX IMVI melanoma and in the assay with SNB-19 CNS was over 100 µM throughout. Also, the TGI in the assay with RPMI-8226 leukemia and in the assay on A498 renal was over 100 µM each time.
On to `CCCCCCCCCCCCCCC(O)C1CCC(C(O)CCC(O)CCCCCC(O)CC2=CC(C)OC2=O)O1` (stereo not drawn), for which the TGI is 13.3 µM with UACC-62 melanoma; 18.6 µM with IGROV1 ovarian; 11.7 µM in the assay on HOP-92 NSCLC; 14.8 µM in the assay with OVCAR-8 ovarian; 4.59 µM in the assay with LOX IMVI melanoma; 11.1 µM in the assay on SNB-19 CNS. Further, the TGI was found to be 2.75 µM in the assay with RPMI-8226 leukemia and 20.5 µM in the assay with A498 renal.
As for `COC(=O)C12C3C4C1C1C2C3C41C(=O)N(C(C)C)C(C)C` (stereo not drawn), the TGI with UACC-62 melanoma, with IGROV1 ovarian, with HOP-92 NSCLC, in the assay on OVCAR-8 ovarian, in the assay on SNB-19 CNS and in the assay on A498 renal was over 100 µM in each case.
For `O=C1OC2C=CC1C1(CCOC1=O)C2` (stereo not drawn), the TGI in the assay with UACC-62 melanoma is 94.6 µM; in the assay with IGROV1 ovarian, over 100 µM; with HOP-92 NSCLC, over 100 µM; in the assay with OVCAR-8 ovarian it was over 100 µM; with LOX IMVI melanoma it was over 100 µM; with SNB-19 CNS, over 100 µM. The TGI in the assay with RPMI-8226 leukemia and in the assay with A498 renal was over 100 µM in each case.
`CCC1(CC)C(=O)[N-]C(=O)[N-]C1=O.[Au+].[Au+].c1ccc([PH+](c2ccccc2)c2ccccc2)cc1.c1ccc([PH+](c2ccccc2)c2ccccc2)cc1`: in the assay on UACC-62 melanoma, the GI50 is 1020 nM and the TGI is 2.2 µM. Further, in the assay on IGROV1 ovarian, the GI50 was 1030 nM and the TGI was 2.3 µM.
For the molecule `C/C=C/C(=O)[O-].N.N.N.N.N.[Co+3].[O-][Cl+3]([O-])([O-])[O-]`, the GI50 in the assay on UACC-62 melanoma is over 100000 nM; in the assay with IGROV1 ovarian, over 100000 nM; in the assay on HOP-92 NSCLC, over 100 µM; in the assay on OVCAR-8 ovarian, over 100 µM; with LOX IMVI melanoma it was over 100 µM; in the assay on SNB-19 CNS, over 100 µM. In addition, the GI50 with RPMI-8226 leukemia and with A498 renal was over 100 µM each time. For the same molecule, the TGI with UACC-62 melanoma, with IGROV1 ovarian, with HOP-92 NSCLC, in the assay on OVCAR-8 ovarian, in the assay on LOX IMVI melanoma and in the assay on SNB-19 CNS was over 100 µM throughout. Moreover, the TGI with RPMI-8226 leukemia and with A498 renal was over 100 µM in each case.
On to `CCOC(=O)/C(C#N)=C(N)/C(=N\Nc1cccc(C(F)(F)F)c1)C(=O)OCC`, for which the TGI in the assay with UACC-62 melanoma, in the assay on IGROV1 ovarian, in the assay on HOP-92 NSCLC, in the assay with OVCAR-8 ovarian, with LOX IMVI melanoma and in the assay with SNB-19 CNS was over 100 µM in each case. Further, the TGI in the assay with RPMI-8226 leukemia and in the assay on A498 renal was over 100 µM throughout.
Turning to `O=C1C2=C(c3ccccc31)C(c1ccc(Cl)cc1)NC(=S)N2` (stereo not drawn), the TGI in the assay on UACC-62 melanoma worked out at 70.9 µM; in the assay on IGROV1 ovarian, 42.6 µM; in the assay on HOP-92 NSCLC it was 41.2 µM; in the assay with OVCAR-8 ovarian it was 38.4 µM; in the assay on SNB-19 CNS it was 96 µM; with RPMI-8226 leukemia, 52.8 µM. Moreover, the TGI with A498 renal is over 100 µM.
For the molecule `COc1ccc(N2C(=O)C(N3C(=O)C=CC3=O)C2C=O)cc1` (stereo not drawn), the TGI in the assay on UACC-62 melanoma, with IGROV1 ovarian, with HOP-92 NSCLC, with OVCAR-8 ovarian, in the assay on LOX IMVI melanoma and in the assay on SNB-19 CNS was over 100 µM throughout. Further, the TGI with RPMI-8226 leukemia and in the assay with A498 renal was over 100 µM throughout.

These data come from PubChem BioAssay (NCI).
